Experimental data as given in US20140163082A1, “PYRAZOLYL COMPOUNDS FOR USE IN REVERSING REACTIVE GLIOSIS” (priority 2011, published 2014).

Test system: rMC-1 cells
Assay: Western blot, rMC-1
Assay type: cell-based
Conditions: rMC-1, hypoxia 48 hours, YC-1 25-100 μM
Description: Cells were placed in airtight chambers [BioSpherix, Redfield, N.Y.] and the O2 tension was maintained at 1.2% by using Pro-Ox Model 110 O2 regulator [BioSpherix, Redfield, N.Y.]. The chamber was purged with a gas mixture of 5.32% CO2, and 93.48% N2. […] Müller cells [rMC-1] and […] cells were seeded overnight in 6-well plates [10^5 cells/well]. Cells were treated with either YC-1 [25-100 μM] or DMSO [0.2% v/v] for 48 hours under normoxic or hypoxic environments. Reactions were terminated by addition of lysis buffer [Cell Signaling, Beverly, Mass.]. Protein content of the cell lysates was determined according to the Bradford method [Bio-Rad, Hercules, Calif.]. Aliquots [40 μg] of whole-cell lysates were separated on 7.5% SDS-PAGE, and electro-transferred onto polyvinylidene membranes [Amersham Pharmacia Biotech, Little Chalfont]. After blocking with 5% nonfat dry milk in TBS-T, the blots were incubated overnight with anti-iNOS [at 1:100] and anti-β-actin [internal control] antibodies. Then blots were washed 3×10 min washes in PBS/tween and subsequently incubated with peroxidase-conjugated anti-mouse IgG secondary antibody at 1:3000. The signals were obtained by enhanced chemiluminescence [Amersham Biosciences], and visualized by exposure to X-ray film. Upon completion of chemiluminescence, equal lane loading was checked by Ponceau S Solution [Sigma, St. Louis, Mo.]. X-ray films were scanned with a computer-assisted densitometer [model G-710; Bio-Rad] to quantify band optical density [Quantity One software; Bio-Rad].

## OCc1ccc(-c2nn(Cc3ccccc3)c3ccccc23)o1 [YC-1, 3-(5′-hydroxymethyl-2′-furyl)-1-benzylindazole]
Vs DMSO-treated hypoxic cells
  HIF-1 protein level (Western blot): inhibited the hypoxia-induced upregulation
  PDGF-B protein level (Western blot): inhibited the hypoxia-induced upregulation
  VEGF protein level (Western blot): inhibited the hypoxia-induced upregulation
  iNOS protein level (Western blot): inhibited the hypoxia-induced upregulation
Vs non-treated hypoxic cells
  GFAP protein level (Western blot): inhibited the hypoxia-induced GFAP protein levels in a dose-dependent manner
